Read-outs that look alike come from different tables or passages of the source. A value given as a limit tells only on which side of the number the result lay.

Data set [1] has as its system differentiating Stage 1 cultures (definitive endoderm). Nature of the data set: Secondary screen on differentiating Stage 1 cultures in 6-well trays. It is filed as cell-based, human. The note with it: compounds added to differentiating Stage 1 cultures. From the text:
(§1) The impedance assay on the hESCs using the compounds in Table 4 above gave greater than twenty (20) hits. However, the ideal candidate compound of the present invention should not only be inhibitory or cytotoxic to human pluripotent stem cells, such as hESCs or hIPSCs, but should at the same time have no effect on cell viability of differentiated or differentiating cell populations including Stage 1, 2, 3, 4 and 5 type cells cultures (definitive endoderm, foregut endoderm, posterior foregut, pancreatic endoderm and endocrine cells, respectively). […] Approximately 3×10^4 hES cells were plated per well and grown for 24 hrs in DC-HAIF defined medium (i.e. StemPro® hESC SFM medium (Life Technologies, Carlsbad, Calif.). Stage 1 or definitive endoderm differentiation was then induced by changing the medium and culturing in RPMI, 100 ng/mL Activin A, and 10 ng/mL of FGF2. […] of GSK-3 beta Inhibitor 15 (Calbiochem #361558) as added to the culture for the first 24 hours of differentiation only. 10 μM of each of the candidate compounds were added about 48 hours or 2 days after differentiation was induced (see FIGS. 3 C & D, large arrowhead), and the cells were cultured for an additional 2 days.
Secondary Screen with Selected Compounds. A secondary screen using 9 of the 10 candidate compounds in Table 5 was performed by adding the compounds to differentiating Stage 1 cultures (definitive endoderm) as described above. For the secondary screen, larger standard 6-well trays were used instead of the RT-CEAS 96-well culture plates used in primary screens employing impedance assays. Only 9 of the 10 compounds in Table 5 were tested because the 10th was not available in sufficient quantity at the time the assays were performed. In the larger, 6-well trays, 5 of the 9 compounds listed in Table 5 had no effect on viability of differentiating cells or differentiated definitive endoderm. […] This assay also confirmed that the viability of differentiating cells and differentiated definitive endoderm cells was apparently consistent regardless of the numbers of cells tested, or the size, volume, or source of the culture vessel.

The test system of a further data set is hESCs (BG02). Nature of the data set: Real-time impedance assay (RT-CES) for inhibitory and cytotoxic agents on hESCs. The note with it: 10 μM compound added after about 24 hours, cultured about 5 more days; compared to DMSO control. From the text: The foregoing 176 selected compounds from the complete LOPAC1280™ library were then used to screen human pluripotent stem cells, e.g., hESCs, and differentiating cultures during Stage 1 (definitive endoderm) using a real-time impedance assay (ACEA biosciences RT-CES system). The RT-CES system uses 96-well trays that contain embedded microsensors to monitor changes in electrical impedance, which is translated into a measure of cell index. Any overt alteration within a cell culture can be detected, including but not limited to cell proliferation, migration, cell spreading, apoptosis, differentiation and the like. […] An increase in the cell index indicates proliferation of the cells, for example, proliferation of the undifferentiated cells. […] See also FIG. 1. […] A “scallop” cell index is one which remains high due to a confluent culture of cells, but will go down and up (scallop) between daily feedings. Conversely, cells undergoing differentiation have distinctive patterns, such as peaks and troughs in the cell index, potentially indicative of an epithelial-to-mesenchymal transition, flattening, cell migration, apoptosis or similar differentiation and growth related changes.
Impedance Assay for Inhibitory and Cytotoxic Agents. Human pluripotent stem cells, e.g., 2×10^4 hESCs (BG02), were cultured in DC-HAIF, a heregulin-based defined media, with daily feeding in the impedance monitoring plates. After about 24 hours, and 10 μM of the selected LOPAC1280™ compound was added to each well (see arrowhead in FIGS. 3 A & B) and cultured for about an additional 5 days.

Data set [2] deals with adherent Stage 1 cell cultures of BG02. The data set can be described thus: Q-PCR marker gene expression, adherent Stage 1 cultures of BG02. The format is cell-based, human. From the text: FIGS. 4A-4G are bar graphs showing the relative gene expression levels of OCT4 (FIG. 4A), NANOG (FIG. 4B), FOXA2 (FIG. 4C), SOX17 (FIG. 4D), SOX7 (FIG. 4E), PAX6 (FIG. 4F) and ZIC1 (FIG. 4G) BG02 with treatment of candidate selective cytotoxic agents from the LOPAC1280™ sublibrary (Table 4) to adherent Stage 1 cell cultures of BG02. Expression levels were normalized using the geometric mean of three housekeeping genes, GUSB, CYCG and TBP. The graphs depict fold regulation compared to the hESC sample. The large arrow heads indicate time of the drug treatment. D=DMSO (control); C=Chelerythrine Chloride; A=AG490; B=BTO-1; De=Dephostatin; S=SU6656.
Screen for Effects on Stages 1-5 Differentiation. To further determine whether these 5 candidate compounds added at Stage 1 affected other differentiated cell types (e.g. Stages 2-5: foregut endoderm, posterior foregut endoderm, pancreatic endoderm and endocrine precursor cells, respectively), hES were differentiated in the presence or absence of compounds, and RNA samples were taken at various stages for gene expression analysis by Q-PCR.
Gene expression levels were plotted relative to a DMSO treated control at the end of Stage 1 (FIG. 4), and relative to undifferentiated hESC aggregates (FIGS. 5 and 6). See “Control” in FIGS. 4, 5 & 6. […] Chelerythrine chloride, Dephostatin, SU 6656 and Tyrphostin AG 490 compounds each caused an increase in SOX17 gene expression as compared to the DMSO control, consistent with the gene expression profile for Stage 1 definitive endoderm cell cultures (FIG. 4D). However, Tyrphostin AG 490 (AG) and SU 6656 (SU) each caused a decrease in FOXA2 (HNF3β) expression as compared to the DMSO control, indicating adverse effects of these two compounds on definitive endoderm (FIG. 4C). Yet none of the compounds appeared to substantially impact expression of non-definitive endoderm markers including SOX7, PAX6 or ZIC1 (FIGS. 4 E, 4F & 4G), and were not, therefore, excluded on the basis of inducing differentiation to other cell types. […] This compound neither decreased OCT4 or NANOG expression, nor increased FOXA2 (HNF3β) or SOX17 expression, as would have been expected of a pluripotent stem cell-selective inhibitor/cytotoxic agent.

A further data set concerns NPCs. Nature of the data set: Secondary screen, lowest effective dose on NPCs. It is filed as cell-based, human. The note with it: lowest concentration that elicited cytotoxicity, range 0.1 to 50 μM, read-out: ED NPC (lowest effective dose). On the procedure: In addition, the complete LOPAC1280™ collection was also screened for effects on neural progenitor cells (NPCs) that were derived from the hESCs. Neural progenitors were plated in serum-free MedII conditioned medium at 6×10^4 cells/well and fed daily. Two days after plating, 10 μM of each compound was added and the cells were cultured for an additional 2 days. […] Reduced crystal violet staining was indicative of lower proportions of NPCs. See circled wells in FIG. 7B. The left and right columns of the LOPAC1280™ plates from which the compounds were dispensed were empty and served as untreated controls. […] See Table 6 below listing the name and class of activity of each candidate compound identified in this screen (except chelerythrine chloride, which is listed in Table 5). ChCl was not included in the subsequent round of screening. Therefore only 40 compounds were tested further.
(§2) Using a range of different concentrations from 0.1 to 50 μM, the forty compounds in Table 6 were re-screened (secondary screen) using hESCS and NPCs. The effective dose (ED) was defined as the lowest concentration of a compound that elicited cytotoxicity during the secondary screen. […] The darker wells were indicative of the increased numbers or percentages of proliferating or growing pluripotent stem cells in the wells. In addition, these 40 compounds were screened on differentiating definitive endoderm (DE) cell cultures in 96-well plate impedance assays (described above) to determine which of these compounds were not cytotoxic to definitive endoderm cells at the lowest effective dose on either hESC or NPC. […] See “ACEA DE” column in Table 6.

For the next data set, the system named is hESCs. The data set can be described thus: Secondary screen, lowest effective dose on hESCs. The format is cell-based, human. The following applies: lowest concentration that elicited cytotoxicity, range 0.1 to 50 μM, read-out: ED hESC (lowest effective dose). On the procedure:
To expand the number of potential candidate hESC cytotoxic and inhibitory compounds, the complete LOPAC1280™ collection (containing 1,280 compounds) was screened. In the primary screen, cytotoxicity was tested on undifferentiated hESCs (about 3×10^4 BG01 cells) in 16 standard 96-well trays, in DC-HAIF defined medium on growth factor-reduced MATRIGEL™ diluted 1:200, which were fed daily (FIG. 7A). 10 μM of each compound was added to the hESCs one day after plating, and the cells were cultured for an additional 2 days. Plates were then fixed and stained for alkaline phosphatase (AP) to identify relative decreases in proliferation or growth of hESCs (as reduced AP staining), indicative of lower proportions of hESCs. See the circled wells in FIG. 7A.
as §2

The test system of data set [3] is differentiating definitive endoderm (DE) cell cultures. The data set can be described thus: 96-well plate impedance assay (ACEA) on differentiating definitive endoderm at lowest effective dose. It is filed as cell-based, human. On the set-up: key: Viable: Compounds that did not appear to be cytotoxic toward differentiating DE cultures were marked as “viable”, meaning that the compound did not affect the survival, growth, proliferation or differentiation of the differentiated cells. The following applies: at the lowest effective dose on either hESC or NPC.
Excerpt: as §1, §2

Data set [4] deals with undifferentiated hESCs growing in adherent culture. Nature of the data set: EC50 of cytotoxic effect on undifferentiated hESCs in adherent culture, real-time impedance assay. The following applies: Homo sapiens, read-out: EC50 concentrations for hES cells (cytotoxic effect). It is filed as cell-based, human. The procedure: In summary, the final three (3) candidates identified from both the primary and secondary screens (EXAMPLE 1) and the full screen of the LOPAC1280™ collection (EXAMPLE 2) were Chelerythrine Chloride, Caffeic acid and Ivermectin. FIG. 11 lists the known or inferred mode(s) of action for these three compounds, as well as their structures. EC50 values for the respective cytotoxic effects on undifferentiated hESCs growing in adherent culture were determined using real-time impedance assays.
Depletion of OCT4-positive cells during Stage 1 differentiation was examined using the plating assay described above. Stage 1 differentiations of hES cells were treated from day 1 to 2 with the candidate compounds as described in Example 2 (chelerythrine chloride, caffeic acid and Ivermectin), at their EC50 concentrations for hES cells. Plated untreated and DMSO-treated aggregates were indistinguishable, and both contained discrete clusters of OCT4-positive cells. See FIG. 13A top and bottom panels for a DMSO treated example. The intensity of OCT4-positive staining in differentiating aggregate cell cultures treated with DMSO (control) was equivalent to undifferentiated hES cells.

For the compound `N#Cc1cc([N+](=O)[O-])c2sc(C(N)=O)[n+]([O-])c2c1` [BTO-1], in data set [1], the “Viability of Definitive Endoderm” value is listed as “Viable”. In the data set with hESCs (BG02), the “cell index (impedance); inhibitory or cytotoxic effect on the hESCs” value was “significant decrease”. The “FOXA2 (HNF3β) expression” value in data set [2] (end of Stage 1, compared to DMSO control (FIG. 4C)) was “did not appear to have any effect”. In addition, the SOX17 gene expression entry in data set [2] (end of Stage 1, compared to DMSO control (FIG. 4D)) is on record as “did not appear to have any effect”. In data set [2] (end of Stage 1, compared to DMSO control (FIGS. 4A, 4B)), the “OCT4 and NANOG gene expression” value is recorded as “did not appear to have any effect”.
`COc1ccc2c(c1)CC[C@@H]1[C@@H]2CC[C@]2(C)[C@@H](NCCCCCCN3C(=O)CCC3=O)CC[C@@H]12` [U-73343]: the values for the minimal effective concentration with NPCs and with hESCs were 5 µM and 10 µM, respectively. In data set [3], the “ACEA DE” value is “Viable”.
In the case of `CC(Cc1ccc(O)c(O)c1)C(C)Cc1ccc(O)c(O)c1` (stereo not drawn) [Nordihydroguaiaretic acid from Larrea, Nordihydroguaiaretic acid from Larrea divaricata (creosote bush)], the minimal effective concentration in the data set with NPCs and in the data set on hESCs was 5 µM throughout. The “ACEA DE” value in data set [3] was “Viable”. Also, in the data set with hESCs (BG02), the “cell index (impedance); inhibitory or cytotoxic effect on the hESCs” value was “significant decrease”.
Turning to `O=C(/C=C/c1ccc(O)c(O)c1)OCCc1ccccc1` [Caffeic acid phenethyl ester], the minimal effective concentration is 5 µM with NPCs (Homo sapiens, 48 h) and below 0.1 µM in the data set with hESCs (Homo sapiens). Besides, the “ACEA DE” value in data set [3] is “Viable”.
In the case of `N#C/C(=C\c1ccc(O)c(O)c1)C(=O)Nc1ccccc1` [Tyrphostin AG 494], the “cell index (impedance); inhibitory or cytotoxic effect on the hESCs” value in the data set on hESCs (BG02) is “significant decrease”.
For `COc1ccc2c(c[n+](C)c3c4cc5c(cc4ccc23)OCO5)c1OC` [Chelerythrine chloride], the EC50 in data set [4] came to 1.4 µM. Also, the “cell index (impedance); inhibitory or cytotoxic effect on the hESCs” value in the data set on hESCs (BG02) was “significant decrease”.
Turning to `O=c1[nH]c2ccccc2n1CCCN1CCC(n2c(=O)[nH]c3cc(Cl)ccc32)CC1` [Domperidone], the minimal effective concentration amounted to 0.1 µM with NPCs (Homo sapiens, 48 h) and 25 µM in the data set with hESCs (Homo sapiens). In data set [3], the “ACEA DE” value is on record as “Viable”.
As to `CC[N+](CC)(CC)CCOc1ccc(/C=C/c2ccccc2)cc1` [MG 624], the minimal effective concentration came to 5 µM in the data set with NPCs (Homo sapiens, 48 h) and 0.1 µM with hESCs (Homo sapiens). Further, the “ACEA DE” value in data set [3] was “Viable”.
The like results for `Clc1ccc(C(c2ccc(Cl)cc2)n2cc[n+](CC(OCc3ccc(Cl)cc3Cl)c3ccc(Cl)cc3Cl)c2)cc1` (stereo not drawn) [Calmidazolium chloride] were, in that order, 5 µM, 5 µM and “Viable”.

The values above are taken from patent US9365830B2, “Agents and methods for inhibiting human pluripotent stem cell growth” (VIACYTE, INC., priority 2010, dated 2016).
